Reference: patent publication US7247627B2, “Salts and polymorphs of a pyrrole-substituted indolinone compound” (Pharmacia & Upjohn Company, priority 2003, dated 2007)
Counter-ions that a name gives are not always drawn.

Columns and labels:
[1] = Hygroscopicity by dynamic moisture sorption gravimetry (DMSG); format: physicochemical; details: for Water Uptake at 80% RH (wt. %) / hygroscopicity / hysteresis of sorption profile: DMSG; for Water Uptake at 80% RH (wt. %): 25° C.
Protocol: In one embodiment, the invention provides a non-hygroscopic salt of 5-[(Z)-(5-fluoro-2-oxo-1,2-dihydro-3H-indol-3-ylidene)methyl]-N-[(2S)-2-hydroxy-3-morpholin-4-ylpropyl]-2,4-dimethyl-1H-pyrrole-3-carboxamide. Hygroscopicity is determined by dynamic moisture sorption gravimetry (DMSG) using a controlled atmosphere microbalance at a temperature of 25° C. Samples are analyzed over a relative humidity range of from 0 to 90% in 3% steps. Each step is brought to equilibrium before moving to the next step, with equilibrium assessed as a weight change of less than 0.002 mg (0.02%) for five consecutive points at 1 point per 120 seconds.
Several salts of 5-[(Z)-(5-fluoro-2-oxo-1,2-dihydro-3H-indol-3-ylidene)methyl]-N-[(2S)-2-hydroxy-3-morpholin-4-ylpropyl]-2,4-dimethyl-1H-pyrrole-3-carboxamide were produced and analyzed for hygroscopicity. Hygroscopicity was determined by dynamic moisture sorption gravimetry (DMSG) using a controlled atmosphere microbalance at a temperature of 25° C. Samples were analyzed over a relative humidity range of from 0 to 90% in 3% steps, in a humidity profile of […], where the initial value of 36% reflects the approximate initial equilibrated relative humidity (not specifically measured). Each step was brought to equilibrium before moving to the next step, with equilibrium assessed as a weight change of less than 0.001 mg (0.01%) or 0.002 mg (0.02%) for five consecutive points at 1 point per 120 seconds. The water uptake at 80% relative humidity (RH) was selected for comparison between the salts. The 80% RH values for each salt are shown in Table 5, and the right column of the table identifies the corresponding Figure showing the complete DMSG scan. A range of values given for the water uptake at 80% reflects hysteresis in the 0→90% and 90→0% scans.

[2] = Crystal form stability by PXRD (Example 3); format: physicochemical; details: 40° C. and 75% relative humidity
Protocol: Crystal form stability was assessed for samples of 5-[(Z)-(5-fluoro-2-oxo-1,2-dihydro-3H-indol-3-ylidene)methyl]-N-[(2S)-2-hydroxy-3-morpholin-4-ylpropyl]-2,4-dimethyl-1 H-pyrrole-3-carboxamide maleate salt, polymorph Form 1, polymorph Form 2, and a mixture of polymorph Form 1 and Form 2. In each case, a sample of the substance was placed into a controlled temperature and humidity stability chamber at 40° C. and 75% relative humidity. Samples were taken several times during the duration of the test and analyzed for qualitative changes in the PXRD patterns.

[3] = TGA of six-week stability samples; format: physicochemical
Protocol: TGA measurements were performed using a TA Instruments model 2950 Hi-Res analyzer with a Thermal Analyst 5000 controller. Samples were placed onto a tared platinum hanging pan and heated to at least 165° C. at a rate of 10° C./min. Dry nitrogen was used as a purge gas.
To determine the thermal stability and residual solvent content, the same samples were analyzed by DSC and TGA.

[4] = Six-week stability study, HPLC chemical and enantiomeric stability, PXRD (Example 4); format: physicochemical; details: for Total Impurity (%): closed vial
Protocol: A six-week stability study was carried out on samples of 5-[(Z)-(5-fluoro-2-oxo-1,2-dihydro-3H-indol-3-ylidene)methyl]-N-[(2S)-2-hydroxy-3-morpholin-4-ylpropyl]-2,4-dimethyl-1H-pyrrole-3-carboxamide maleate salt, polymorph Form 1. The compound was exposed for 6 weeks, closed vial, at three stability test conditions: 5° C., 25° C./60% relative humidity and 40° C./75% relative humidity, and analyzed for chemical and enantiomeric stability as described in Example 2, except that the HPLC instrument was an Agilent 1100 series.
The percent recovery was calculated based on the average response factor obtained from a reference standard throughout the HPLC run, and considering the E isomer as the compound and not as an impurity. […] The isomerization is often an artifact of sample preparation and analysis. […] The values shown in the table are averages of several injections.

hepatic cytochrome P450 = test: Metabolism in preclinical species and in human hepatocytes and microsomes; format: in vitro ADME; details: preclinical species (in vivo and in vitro)
Protocol: The primary site of metabolism is the morpholinyl group. Three metabolites have been identified in vivo following single oral administration (100 mg/kg) to cynomolgus monkeys (FIG. 8). These 3 metabolites, which were detected at <16% relative abundance to parent in monkey plasma, were also the major products observed in human microsomes and hepatocytes. Relative abundance was determined from monkey plasma following a single dose of 5-[(Z)-(5-fluoro-2-oxo-1,2-dihydro-3H-indol-3-ylidene)methyl]-N-[(2S)-2-hydroxy-3-morpholin-4-ylpropyl]-2,4-dimethyl-1H-pyrrole-3-carboxamide (100 mg/kg) and based on (AUC0-12 metabolite/AUC0-12 parent)×100, estimated from the characteristic indole UV absorption at 440 nm. The N,O-dealkylation metabolite has been confirmed via nuclear magnetic resonance (NMR). […] The morpholinyl lactam metabolite is the product of oxygenation-dehydrogenation and has also been confirmed via NMR. The morpholinyl hemi-aminal metabolite is an unstable metabolite identified via an iminium-ion trapping experiment. Relative abundance was determined by UV response at 428 nm.

[5] = Solid-state properties of the free base form; format: physicochemical
[6] = test system: solid and hematopoietic cancer xenograft models; details: diverse preclinical solid and hematopoietic cancer xenograft models; cited from earlier work
[7] = 6-week sample stored at 25° C./60% RH
[8] = 6-week sample stored at 40° C./75% RH

## Cc1[nH]c(/C=C2\C(=O)Nc3ccc(F)cc32)c(C)c1C(=O)NC[C@H](O)CN1CCOCC1 [L-tartrate, 5-[(Z)-(5-fluoro-2-oxo-1,2-dihydro-3H-indol-3-ylidene)methyl]-N-[(2S)-2-hydroxy-3-morpholin-4-ylpropyl]-2,4-dimethyl-1H-pyrrole-3-carboxamide]
[1]; 80% relative humidity
  Water Uptake at 80% RH (wt. %): 9 wt. %

## Cc1[nH]c(/C=C2\C(=O)Nc3ccc(F)cc32)c(C)c1C(=O)NC[C@H](O)CN1CCOCC1 [Tosylate, 5-[(Z)-(5-fluoro-2-oxo-1,2-dihydro-3H-indol-3-ylidene)methyl]-N-[(2S)-2-hydroxy-3-morpholin-4-ylpropyl]-2,4-dimethyl-1H-pyrrole-3-carboxamide]
[1]; 80% relative humidity
  Water Uptake at 80% RH (wt. %): 7 wt. %
[1]; at about 65% relative humidity
  Uptake of water: about 2.5%

## Cc1[nH]c(/C=C2\C(=O)Nc3ccc(F)cc32)c(C)c1C(=O)NC[C@H](O)CN1CCOCC1 [Form 1, 5-[(Z)-(5-fluoro-2-oxo-1,2-dihydro-3H-indol-3-ylidene)methyl]-N-[(2S)-2-hydroxy-3-morpholin-4-ylpropyl]-2,4-dimethyl-1H-pyrrole-3-carboxamide]
[2]; 163 days
  crystal form changes in the PXRD pattern: no crystal form changes were observed
[3]; 6-week sample stored at 5° C.
  TGA Wt. Loss (%), 25° C.–125° C.: 1.44%
  TGA Wt. Loss (%), 25° C.–275° C.: 23.15%
[3]; [7]
  TGA Wt. Loss (%), 25° C.–125° C.: 1.36%
  TGA Wt. Loss (%), 25° C.–275° C.: 24.36%
[3]; [8]
  TGA Wt. Loss (%), 25° C.–125° C.: 1.66%
  TGA Wt. Loss (%), 25° C.–275° C.: 20.61%
[3]; 6-week samples
  TGA significant weight loss at 207° C.: 21-23%
  TGA weight loss between 25–125° C.: less than 2%
[4]; 6-week samples maintained at 40° C./75% RH
  crystalline changes by PXRD compared to a control sample: no crystalline changes
[4]; 6-week stability samples, any samples
  chiral transformation: no chiral transformation observed
[4]; 6 weeks, 5° C. ± 3° C.
  Total Impurity (%): 1.67%
[4]; 6 weeks, 25° C. ± 2° C., 60% RH
  Total Impurity (%): 1.85%
[4]; 6 weeks, 40° C. ± 2° C.C, 76% RH
  Total Impurity (%): 1.86%
[4]; all three stability conditions
  assay of the 6-week stability samples: 97.1–98.5%
[4]; samples held at 80° C. for 2 weeks
  Enantiomeric stability, amount of R isomer: no increase in the amount of R isomer observed
[4]; under all stability conditions investigated, 6 weeks
  stability: stable

## Cc1[nH]c(/C=C2\C(=O)Nc3ccc(F)cc32)c(C)c1C(=O)NC[C@H](O)CN1CCOCC1 [mixed Form 1/Form 2, 5-[(Z)-(5-fluoro-2-oxo-1,2-dihydro-3H-indol-3-ylidene)methyl]-N-[(2S)-2-hydroxy-3-morpholin-4-ylpropyl]-2,4-dimethyl-1H-pyrrole-3-carboxamide]
[2]; 6 weeks
  crystal form changes in the PXRD pattern: no crystal form changes were observed

## Cc1[nH]c(/C=C2\C(=O)Nc3ccc(F)cc32)c(C)c1C(=O)NC[C@H](O)CN1CCOCC1 [Form 2, 5-[(Z)-(5-fluoro-2-oxo-1,2-dihydro-3H-indol-3-ylidene)methyl]-N-[(2S)-2-hydroxy-3-morpholin-4-ylpropyl]-2,4-dimethyl-1H-pyrrole-3-carboxamide]
[2]; 134 days
  crystal form changes in the PXRD pattern: no crystal form changes were observed
[1]; 80% relative humidity, listed as Maleate
  Water Uptake at 80% RH (wt. %): 0.8 wt. %

## Cc1[nH]c(/C=C2\C(=O)Nc3ccc(F)cc32)c(C)c1C(=O)NC[C@H](O)CN1CCOCC1 [HCl, form 2, 5-[(Z)-(5-fluoro-2-oxo-1,2-dihydro-3H-indol-3-ylidene)methyl]-N-[(2S)-2-hydroxy-3-morpholin-4-ylpropyl]-2,4-dimethyl-1H-pyrrole-3-carboxamide]
[1]
  hygroscopicity: relatively non-hygroscopic
  hysteresis of sorption profile: no significant hysteresis
[1]; 80% relative humidity
  Water Uptake at 80% RH (wt. %): 1.2 wt. %

## Cc1[nH]c(/C=C2\C(=O)Nc3ccc(F)cc32)c(C)c1C(=O)NC[C@H](O)CN1CCOCC1 [Mandalate, 5-[(Z)-(5-fluoro-2-oxo-1,2-dihydro-3H-indol-3-ylidene)methyl]-N-[(2S)-2-hydroxy-3-morpholin-4-ylpropyl]-2,4-dimethyl-1H-pyrrole-3-carboxamide]
[1]; 80% relative humidity
  Water Uptake at 80% RH (wt. %): 5–6 wt. %

## Cc1[nH]c(/C=C2\C(=O)Nc3ccc(F)cc32)c(C)c1C(=O)NC[C@H](O)CN1CCOCC1 [L-malate, 5-[(Z)-(5-fluoro-2-oxo-1,2-dihydro-3H-indol-3-ylidene)methyl]-N-[(2S)-2-hydroxy-3-morpholin-4-ylpropyl]-2,4-dimethyl-1H-pyrrole-3-carboxamide]
[1]; 80% relative humidity
  Water Uptake at 80% RH (wt. %): 12–13 wt. %

## Cc1[nH]c(/C=C2\C(=O)Nc3ccc(F)cc32)c(C)c1C(=O)NC[C@H](O)CN1CCOCC1 [HCl, form 1, 5-[(Z)-(5-fluoro-2-oxo-1,2-dihydro-3H-indol-3-ylidene)methyl]-N-[(2S)-2-hydroxy-3-morpholin-4-ylpropyl]-2,4-dimethyl-1H-pyrrole-3-carboxamide]
[1]; 80% relative humidity
  Water Uptake at 80% RH (wt. %): 3–20 wt. %
[1]; listed as hydrochloride salt
  hysteresis of sorption profile: significant hysteresis

## Cc1[nH]c(/C=C2\C(=O)Nc3ccc(F)cc32)c(C)c1C(=O)NC[C@H](O)CN1CCOCC1 [initial maleate salt, 5-[(Z)-(5-fluoro-2-oxo-1,2-dihydro-3H-indol-3-ylidene)methyl]-N-[(2S)-2-hydroxy-3-morpholin-4-ylpropyl]-2,4-dimethyl-1H-pyrrole-3-carboxamide]
[1]; 80% relative humidity
  moisture uptake: about 9%
[1]
  hygroscopicity: hygroscopic

## Cc1[nH]c(/C=C2\C(=O)Nc3ccc(F)cc32)c(C)c1C(=O)NC[C@H](O)CN1CCOCC1 [Malonate, 5-[(Z)-(5-fluoro-2-oxo-1,2-dihydro-3H-indol-3-ylidene)methyl]-N-[(2S)-2-hydroxy-3-morpholin-4-ylpropyl]-2,4-dimethyl-1H-pyrrole-3-carboxamide]
[1]; 80% relative humidity
  Water Uptake at 80% RH (wt. %): 12 wt. %

## Cc1[nH]c(/C=C2\C(=O)Nc3ccc(F)cc32)c(C)c1C(=O)NC[C@H](O)CN1CCOCC1 [5-[(Z)-(5-fluoro-2-oxo-1,2-dihydro-3H-indol-3-ylidene)methyl]-N-[(2S)-2-hydroxy-3-morpholin-4-ylpropyl]-2,4-dimethyl-1H-pyrrole-3-carboxamide]
Hepatic cytochrome P450
  metabolism pathway: proceeds primarily through an oxidative pathway mediated by hepatic cytochrome P450
[5]
  chemical and enantiomeric stability: chemically and enantiomerically stable
  hygroscopicity: relatively non-hygroscopic
[6]
  anti-tumor activity: has anti-tumor activity
